Results as given in article PMC11828983 (Scientific Reports, 2025).

Key:
[1] = target: T1, α3 GlyR (homomeric) (Rattus norvegicus, UniProt P24524); experiment: whole-cell patch clamp, direct activation; assay type: cell-based; details: no glycine added; agonist; residual glycine not excluded
T1 sequence (P24524 34-464): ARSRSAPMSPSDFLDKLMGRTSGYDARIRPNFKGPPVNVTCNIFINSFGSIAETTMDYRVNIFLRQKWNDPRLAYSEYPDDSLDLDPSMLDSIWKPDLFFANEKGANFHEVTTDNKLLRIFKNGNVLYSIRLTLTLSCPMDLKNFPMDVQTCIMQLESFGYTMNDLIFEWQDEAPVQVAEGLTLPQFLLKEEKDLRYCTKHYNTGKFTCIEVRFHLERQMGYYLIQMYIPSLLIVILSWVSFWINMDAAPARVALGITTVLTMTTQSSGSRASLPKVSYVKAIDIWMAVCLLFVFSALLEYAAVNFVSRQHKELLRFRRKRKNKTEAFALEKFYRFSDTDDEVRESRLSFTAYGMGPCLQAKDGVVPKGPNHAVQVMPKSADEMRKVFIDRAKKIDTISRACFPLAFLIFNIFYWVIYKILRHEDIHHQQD

[2] = target: T2, α1 GlyR (homomeric) (Rattus norvegicus, UniProt Q546L7); experiment: whole-cell patch clamp, direct activation; assay type: cell-based; details: no glycine added; agonist; residual glycine not excluded
T2 sequence (Q546L7 29-449): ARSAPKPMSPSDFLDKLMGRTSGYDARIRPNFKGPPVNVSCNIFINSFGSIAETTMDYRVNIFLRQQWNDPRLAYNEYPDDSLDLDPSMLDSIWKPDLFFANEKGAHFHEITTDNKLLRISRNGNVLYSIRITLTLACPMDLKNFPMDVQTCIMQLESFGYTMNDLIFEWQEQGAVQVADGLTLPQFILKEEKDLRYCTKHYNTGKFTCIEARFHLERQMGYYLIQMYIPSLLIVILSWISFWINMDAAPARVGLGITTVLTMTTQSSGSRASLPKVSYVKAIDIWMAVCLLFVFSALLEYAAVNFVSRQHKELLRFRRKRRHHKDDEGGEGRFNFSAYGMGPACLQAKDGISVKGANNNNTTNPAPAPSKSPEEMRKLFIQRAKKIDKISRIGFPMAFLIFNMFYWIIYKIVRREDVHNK

AM-1488
% of maximal glycine current at 100 μM [1]: ~ 15% | % of maximal glycine current at 100 μM [2]: > 20%
